Consider one molecule from patent US12644100B2, “Methods for treating metabolic disorders by targeting ADCY5” (THE BROAD INSTITUTE, INC., priority 2019, dated 2026).

Structures are written as SMILES.

The assay relates to primary differentiating osteoblasts. Description: Osteoblast differentiation assay (ALP activity) in primary differentiating osteoblasts treated with etomoxir. It counts as cell-based, human. Conditions: 100 μM etomoxir between day 2 and day 5 of differentiation. The protocol:
FIG. 9A-9E—3q21.1 haplotype affects lipid oxidation in adipocytes and osteoblasts. (9A) Osteoblast alkaline phosphatase (ALP) activity in primary differentiating osteoblasts treated with 100 μM etomoxir (carnitine palmitoyltransferase 1 antagonist) or negative control. Assays were performed in cells from 18 heterozygous individuals (haplotypes 1/2) and 23 homozygous individuals (haplotypes 1/1) and differentiating osteoblasts were treated between day 2 and day 5 of differentiation. (9B) Oxidation of [14C]palmitate (0.5 mM) to 14CO2 in primary differentiating osteoblasts treated with 100 μM etomoxir (carnitine palmitoyltransferase 1 antagonist) or negative control. […] Seahorse XF24 Flux analyzer was performed at each time point and contribution of ATP generation was calculated from glycolysis vs. oxidative phosphorylation. […] Isogenic lines were differentiated to osteoblasts after undergoing clonal expansion, and marker gene expression for osteoblast differentiation was measured by qPCR. […] Isogenic lines were differentiated to adipocytes after undergoing clonal expansion, and catecholamine-stimulated lipolysis was measured. […]
Culture and differentiation of primary human AMSCs. […] Additionally, small quantities of the original liposuction material would be aliquoted into T-25 flasks at a 1:1 ratio of fat to medium as controls to check for contamination. […]

`CCOC(=O)[C@@]1(CCCCCCOc2ccc(Cl)cc2)CO1` [etomoxir]: the “osteoblast differentiation (ALP activity)” value is, setting by setting: (haplotype 1 homozygotes (n=23), p-value=0.005) “dramatic reduction in osteoblast differentiation”; (heterozygotes haplotypes 1/2 (n=18)) “no effect”.
